The values below come from US12559504B2, “Benzotriazole derivative” (UBE CORPORATION, priority 2019, dated 2026).

Where only a bound is given, the exact number is not on record here.

The target of series [1] is T1, GST fusion human Keap1 (amino acid residue: 325-624) protein (Homo sapiens, UniProt Q14145).
T1 construct: GST fusion human Keap1 (amino acid residue: 325-624) protein; purchased Protein tech Ag0779
In words: Keap1-Nrf2 binding inhibition test (fluorescence polarization). The note with it: compound concentration of 100 nM; read-out: inhibition rate. An outline of the steps:
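Fluorescence polarization with FITC-labelled Nrf2 peptide (FITC-Ahx-LDEETGEFL-NH2) and GST-human Keap1 (325-624) in 20 mM Tris pH 7.5, 150 mM NaCl, 0.05% Tween 20, 5 mM DTT, BSA; 30 min at room temperature, ex 482/em 530 nm. Percent inhibition at 100 nM compound, Keap1-free wells = 100%.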

Series [2] concerns NQO1. In words: NQO1 enzyme induction test (in vitro) in Hepa1c1c7 cells. Type of series: cell-based. The note with it: Mus musculus, Hepa-1c1c7, 48 h, concentration to elevate the NQO1 activity by 1.5 times, about 48 hours, read-out: EC150. An outline of the steps: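 Mouse Hepa1c1c7 cells treated about 48 h with compound (0.1% DMSO final), then lysed. NQO1 activity read as MTT reduction at 540 nm with menadione substrate, 5 min at room temperature, and corrected for cell number by CellTiter-Glo. EC150 is the concentration raising NQO1 activity 1.5-fold.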

Series [3] deals with NQO1. In words: NQO1 expression induction test in mouse kidney (single administration). Type of series: in vivo. The note with it: Mus musculus, po, 6 h, BALB/c mouse kidney, 6 hours after administration, ratio to control group. An outline of the steps:
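Female BALB/c mice received a single oral dose of compound in 0.5% methylcellulose, with untreated mice as controls. Six hours later, left-kidney NQO1 mRNA was measured by SYBR real-time RT-PCR normalised to GAPDH. Induction was expressed as the ratio of mean treated to mean control expression.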

A short description of series [4]: Metabolism test using human liver microsome fractions. Type of series: in vitro ADME. The note with it: human liver microsomes, test compound 10 μmol/L, NADPH and UDP-glucuronic acid, 37° C. An outline of the steps:
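Compound depletion at 10 μmol/L final, 37 °C, followed by UV-HPLC of acetonitrile-quenched aliquots taken 0, 5, 10, 15, 20, 30 min; incubations contained microsomes (1 mg protein, human or monkey) with NADPH and UDPGA cofactors. Rate = slope over linear range.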

T1 sequence (Q14145 325-624): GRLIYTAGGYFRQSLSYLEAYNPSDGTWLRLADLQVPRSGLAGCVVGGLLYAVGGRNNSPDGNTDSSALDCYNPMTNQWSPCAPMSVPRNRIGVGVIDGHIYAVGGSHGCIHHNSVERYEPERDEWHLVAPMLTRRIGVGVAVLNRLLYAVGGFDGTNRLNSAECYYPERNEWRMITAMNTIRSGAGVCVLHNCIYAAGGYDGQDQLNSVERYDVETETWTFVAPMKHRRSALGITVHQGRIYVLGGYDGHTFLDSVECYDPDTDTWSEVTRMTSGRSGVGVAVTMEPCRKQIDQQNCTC

Regarding `CC[C@@H]1CN(Cc2cc(C(c3ccc4c(nnn4C)c3C)C(C)(C)C(=O)O)ccc2C)Cc2c(ccc3cccnc23)O1` (stereo partly drawn) [Example 17-(b), 3-(1,4-dimethyl-1H-benzo[d][1,2,3]triazol-5-yl)-3-(3-(((R)-8-ethyl-8,9-dihydro-[1,4]oxazepino[7,6-h]quinolin-10 (11H)-yl)methyl)-4-methylphenyl)-2,2-dimethylpropanoic Acid], the inhibition at 0.1 µM in series [1] is no less than 50%. Also, in series [2], the EC (1.5-fold NQO1 activity) was 0.005 to 0.05 µM. For the same compound, the fold induction at 30 mg/kg in series [3] was in the range of 3 to 6. The Human metabolic rate result in series [4] is reported as “E (metabolic rate≥250 pmol/min/mg protein)”.
In the case of `CC[C@@H]1CN(Cc2cc(C(c3ccc4c(nnn4C)c3C)C(C)(C)C(=O)O)ccc2C)Cc2cc3ncccc3cc2O1` (stereo partly drawn) [Example 12-(b), 3-(1,4-dimethyl-1H-benzo[d][1,2,3]triazol-5-yl)-3-(3-(((R)-2-ethyl-2,3-dihydro-[1,4]oxazepino[7,6-g]quinolin-4 (5H)-yl)methyl)-4-methylphenyl)-2,2-dimethylpropanoic Acid], the inhibition at 0.1 µM in series [1] was no less than 50%. The EC (1.5-fold NQO1 activity) in series [2] is 0.0005 to 0.005 µM. For the same compound, the fold induction at 30 mg/kg in series [3] is greater than 6. Moreover, the Human metabolic rate result in series [4] is on record as “D (200≤metabolic rate<250 pmol/min/me protein)”.
The like results for `CC[C@@H]1CN(Cc2cc(C(c3ccc4c(nnn4C)c3C)C(C)(C)C(=O)O)ccc2C)Cc2cc3c(cc2O1)OC(F)(F)O3` (stereo partly drawn) [Example 1-(b), 3-(1,4-dimethyl-1H-benzo[d][1,2,3]triazol-5-yl)-3-(3-(((R)-6-ethyl-2,2-difluoro-6,7-dihydro-[1,3]dioxolo[4′,5′:4,5]benzo[1,2-f][1,4]oxazepin-8(9H)-yl)methyl)-4-methylphenyl)-2,2-dimethylpropanoic Acid] were, in that order, no less than 50%, 0.0005 to 0.005 µM, 3 to 6 and “C (150≤metabolic rate<200 pmol/min/mg protein)”.
Turning to `CC[C@@H]1CN(Cc2cc(C(c3ccc4c(nnn4C)c3C)C(C)(C)C(=O)O)ccc2C)Cc2cc3c(F)cccc3cc2O1` (stereo partly drawn) [Example 54-(b), 3-(1,4-dimethyl-1H-benzo[d][1,2,3]triazol-5-yl)-3-(3-(((R)-2-ethyl-7-fluoro-2,3-dihydronaphtho[2,3-f][1,4]oxazepin-4(5H)-yl)methyl)-4-methylphenyl)-2,2-dimethylpropanoic Acid], in series [1], the inhibition at 0.1 µM is no less than 50%. The EC (1.5-fold NQO1 activity) in series [2] lay in the range of 0.005 to 0.05 µM. In series [3], the fold induction at 30 mg/kg is 3 to 6. In addition, the Human metabolic rate result in series [4] is on record as “B (100≤metabolic rate<150 pmol/min/mg protein)”.
As for `CC[C@@H]1CN(Cc2cc(C(c3ccc4c(nnn4C)c3C)C(C)(C)C(=O)O)ccc2C)Cc2cc3c(Cl)cccc3cc2O1` (stereo partly drawn) [Example 68-(b), 3-(3-(((R)-7-chloro-2-ethyl-2,3-dihydronaphtho[2,3-f][1,4]oxazepin-4 (5H)-yl)methyl)-4-methylphenyl)-3-(1,4-dimethyl-1H-benzo[d][1,2,3]triazol-5-yl)-2,2-dimethylpropanoic Acid], the inhibition at 0.1 µM in series [1] was no less than 50%. Also, in series [2], the EC (1.5-fold NQO1 activity) fell in the range of 0.005 to 0.05 µM. The fold induction at 20 mg/kg in series [3] was 3 to 6. In addition, the Human metabolic rate result in series [4] was “A (metabolic rate<100 pmol/min/mg protein)”.
With `CC[C@@H]1CN(Cc2cc(C(c3ccc4c(nnn4C)c3C)C(C)(C)C(=O)O)ccc2C)Cc2cc3nccc(C)c3cc2O1` (stereo partly drawn) [Example 71-(b), 3-(1,4-dimethyl-1H-benzo[d][1,2,3]triazol-5-yl)-3-(3-(((R)-2-ethyl-10-methyl-2,3-dihydro-[1,4]oxazepino[7,6-g]quinolin-4 (5H)-yl)methyl)-4-methylphenyl)-2,2-dimethylpropanoic Acid], the inhibition at 0.1 µM in series [1] was no less than 50%. For the same compound, in series [2], the EC (1.5-fold NQO1 activity) fell in the range of 0.0005 to 0.005 µM. In addition, in series [3], the fold induction at 20 mg/kg is greater than 6. The Human metabolic rate result in series [4] is “D (200≤metabolic rate<250 pmol/min/me protein)”.
The like results for `CC[C@@H]1CN(Cc2cc(C(c3ccc4c(nnn4C)c3C)C(C)(C)C(=O)O)ccc2C)Cc2cc3c(cc2O1)S(=O)(=O)CC3` (stereo partly drawn) [Example 74-(b), 3-(1,4-dimethyl-1H-benzo[d][1,2,3]triazol-5-yl)-3-(3-(((R)-2-ethyl-9,9-dioxide-2,3,7,8-tetrahydrothieno[2′,3′:4,5]benzo[1,2-f][1,4]oxazepin-4(5H)-yl)methyl)-4-methylphenyl)-2,2-dimethylpropanoic Acid] were, in that order, no less than 50%, 0.0005 to 0.005 µM, 3 to 6 and “B (100≤metabolic rate<150 pmol/min/mg protein)”.
Consider `CC[C@@H]1CN(Cc2cc(C(c3ccc4c(nnn4C)c3C)C(C)(C)C(=O)O)ccc2C)Cc2cc3nn(C)cc3cc2O1` (stereo partly drawn) [Example 66-(b), 3-(1,4-dimethyl-1H-benzo[d][1,2,3]triazol-5-yl)-3-(3-(((R)-6-ethyl-2-methyl-2,6,7,9-tetrahydro-8H-[1,4]oxazepino[7,6-f]indazol-8-yl)methyl)-4-methylphenyl)-2,2-dimethylpropanoic Acid], for which the inhibition at 0.1 µM in series [1] is no less than 50%. For the same compound, the EC (1.5-fold NQO1 activity) in series [2] is 0.0005 to 0.005 µM. Moreover, in series [3], the fold induction at 20 mg/kg was greater than 6. The Human metabolic rate entry in series [4] is “E (metabolic rate≥250 pmol/min/mg protein)”.
On to `CC[C@@H]1CN(Cc2cc(C(c3ccc4c(nnn4C)c3C)C(C)(C)C(=O)O)ccc2C)Cc2cc3nccc(Cl)c3cc2O1` (stereo partly drawn) [Example 69, 3-(3-(((R)-10-chloro-2-ethyl-2,3-dihydro-[1,4]oxazepino[7,6-g]quinolin-4 (5H)-yl)methyl)-4-methylphenyl)-3-(1,4-dimethyl-1H-benzo[d][1,2, 3]triazol-5-yl)-2,2-dimethylpropanoic Acid], for which the inhibition at 0.1 µM in series [1] was no less than 50%. In series [2], the EC (1.5-fold NQO1 activity) was less than 0.0005 µM. Besides, the fold induction at 20 mg/kg in series [3] was in the range of 3 to 6. For the same compound, the Human metabolic rate entry in series [4] was “D (200≤metabolic rate<250 pmol/min/me protein)”.
As for `CC[C@@H]1CN(Cc2cc(C(c3ccc4c(nnn4C)c3C)C(C)(C)C(=O)O)ccc2C)Cc2cc3c(cnn3C)cc2O1` (stereo partly drawn) [Example 65-(b), 3-(1,4-dimethyl-1H-benzo[d][1,2,3]triazol-5-yl)-3-(3-(((R)-6-ethyl-1-methyl-1,6,7,9-tetrahydro-8H-[1,4]oxazepino[7,6-f]indazol-8-yl)methyl)-4-methylphenyl)-2,2-dimethylpropanoic Acid], in series [1], the inhibition at 0.1 µM was no less than 50%. Also, in series [2], the EC (1.5-fold NQO1 activity) was 0.0005 to 0.005 µM. The fold induction at 20 mg/kg in series [3] is 3 to 6. Further, the Human metabolic rate entry in series [4] was “D (200≤metabolic rate<250 pmol/min/me protein)”.
As for `CC[C@@H]1CN(Cc2cc(C(c3ccc4c(nnn4C)c3C)C(C)(C)C(=O)O)ccc2C)Cc2cc3c(cc2O1)CCCC3` (stereo partly drawn) [Example 4-(b), 3-(1,4-dimethyl-1H-benzo[d][1,2,3]triazol-5-yl)-3-(3-(((R)-2-ethyl-2,3,7,8,9,10-hexahydronaphtho[2,3-f][1,4]oxazepin-4(5H)-yl)methyl)-4-methylphenyl)-2,2-dimethylpropanoic Acid], the inhibition at 0.1 µM in series [1] was no less than 50%. The EC (1.5-fold NQO1 activity) in series [2] fell in the range of 0.005 to 0.05 µM. In series [3], the fold induction at 30 mg/kg is greater than 6. Moreover, in series [4], the Human metabolic rate entry is reported as “B (100≤metabolic rate<150 pmol/min/mg protein)”.
